# Test results as given in ChEMBL document CHEMBL5620344, “Discovery of novel 5-(2-hydroxyphenyl)-2-phthalide-3(3H)-pyrazolones as balanced multifunctional agents against Alzheimer's disease” (Eur J Med Chem, 2023).
# Assays:
# [1] = molecular target: T1, Amine oxidase [flavin-containing] A (Homo sapiens, UniProt P21397); experiment: Inhibition of human recombinant MAO-A
# T1 sequence (P21397 whole entry): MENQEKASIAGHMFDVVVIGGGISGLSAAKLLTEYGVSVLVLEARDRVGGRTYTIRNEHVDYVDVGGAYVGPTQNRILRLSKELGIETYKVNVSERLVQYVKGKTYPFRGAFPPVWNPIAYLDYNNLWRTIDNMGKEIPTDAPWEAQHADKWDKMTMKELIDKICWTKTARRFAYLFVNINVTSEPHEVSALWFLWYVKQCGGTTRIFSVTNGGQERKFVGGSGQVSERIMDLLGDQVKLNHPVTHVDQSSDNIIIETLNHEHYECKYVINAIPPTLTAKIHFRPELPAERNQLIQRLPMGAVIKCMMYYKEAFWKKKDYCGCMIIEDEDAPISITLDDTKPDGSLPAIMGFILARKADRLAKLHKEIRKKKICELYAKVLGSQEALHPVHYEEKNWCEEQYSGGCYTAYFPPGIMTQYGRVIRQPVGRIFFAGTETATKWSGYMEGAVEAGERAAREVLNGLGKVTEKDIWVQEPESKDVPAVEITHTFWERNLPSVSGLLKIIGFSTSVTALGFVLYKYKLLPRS
# [2] = molecular target: T2, Amine oxidase [flavin-containing] B (Homo sapiens, UniProt P27338); experiment: Inhibition of human recombinant MAO-B
# T2 sequence (P27338 whole entry): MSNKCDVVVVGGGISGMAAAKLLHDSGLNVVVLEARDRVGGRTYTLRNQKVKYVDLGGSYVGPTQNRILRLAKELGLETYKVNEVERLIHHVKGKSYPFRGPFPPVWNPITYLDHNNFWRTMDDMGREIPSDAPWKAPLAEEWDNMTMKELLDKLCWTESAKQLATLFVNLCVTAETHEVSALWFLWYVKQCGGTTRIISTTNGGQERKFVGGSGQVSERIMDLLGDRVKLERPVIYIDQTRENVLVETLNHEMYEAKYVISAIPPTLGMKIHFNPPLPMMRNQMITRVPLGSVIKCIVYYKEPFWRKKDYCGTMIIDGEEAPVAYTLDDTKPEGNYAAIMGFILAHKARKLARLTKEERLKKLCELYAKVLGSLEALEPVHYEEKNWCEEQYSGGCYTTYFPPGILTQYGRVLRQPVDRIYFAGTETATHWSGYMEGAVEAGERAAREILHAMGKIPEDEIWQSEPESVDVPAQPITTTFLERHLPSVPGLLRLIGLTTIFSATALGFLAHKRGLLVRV
# [3] = Selectivity index, ratio of IC50 for human recombinant MAO-A to IC50 for human recombinant MAO-B
# [4] = Antioxidant activity assessed as trolox equivalent of ORAC radical scavenging activity by ORAC-FL assay relative to trolox; assay type: functional
# [5] = molecular target: Amyloid-beta precursor protein (Homo sapiens) (UniProt P05067); experiment: Inhibition of self-induced amyloid beta (1 to 42) (unknown origin) aggregation at 25 uM by ThT fluorescence assay
# Amyloid-beta precursor protein (Homo sapiens), sequence (P05067 whole entry): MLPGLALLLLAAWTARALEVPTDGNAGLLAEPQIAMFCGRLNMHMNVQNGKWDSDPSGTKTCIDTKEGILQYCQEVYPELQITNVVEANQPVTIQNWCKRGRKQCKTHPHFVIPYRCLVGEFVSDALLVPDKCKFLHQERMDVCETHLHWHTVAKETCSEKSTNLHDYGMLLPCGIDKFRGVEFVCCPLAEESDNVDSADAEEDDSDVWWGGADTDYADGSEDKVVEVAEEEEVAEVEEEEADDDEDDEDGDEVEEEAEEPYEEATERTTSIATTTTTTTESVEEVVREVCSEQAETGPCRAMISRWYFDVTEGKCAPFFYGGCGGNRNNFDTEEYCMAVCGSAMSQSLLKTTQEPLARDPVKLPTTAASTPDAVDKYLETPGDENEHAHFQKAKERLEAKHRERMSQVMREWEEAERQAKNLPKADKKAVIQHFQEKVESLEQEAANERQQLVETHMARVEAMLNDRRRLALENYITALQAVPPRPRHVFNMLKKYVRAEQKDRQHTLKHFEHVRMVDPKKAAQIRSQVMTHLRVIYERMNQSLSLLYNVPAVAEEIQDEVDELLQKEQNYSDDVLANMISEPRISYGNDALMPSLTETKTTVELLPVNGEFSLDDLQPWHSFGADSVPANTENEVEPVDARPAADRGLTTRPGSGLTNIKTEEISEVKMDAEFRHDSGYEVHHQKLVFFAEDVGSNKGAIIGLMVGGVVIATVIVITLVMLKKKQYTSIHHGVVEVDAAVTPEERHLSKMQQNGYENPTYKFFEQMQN
# [6] = molecular target: Amyloid-beta precursor protein (Homo sapiens) (UniProt P05067); experiment: Disaggregation of self-induced amyloid beta (1 to 42) (unknown origin) preformed fibrils at 25 uM by ThT fluorescence assay
# [7] = molecular target: Amyloid-beta precursor protein (Homo sapiens) (UniProt P05067); experiment: Inhibition of Cu2+-induced amyloid beta (1 to 42) (unknown origin) aggregation at 25 uM by ThT fluorescence assay
# [8] = molecular target: Amyloid-beta precursor protein (Homo sapiens) (UniProt P05067); experiment: Disaggregation of Cu2+-induced amyloid beta (1 to 42) (unknown origin) preformed fibrils at 25 uM by ThT fluorescence assay
# MAO-A = molecular target: T3, MAO-A (Homo sapiens, UniProt P21397); experiment: Inhibition of human recombinant MAO-A at 10 uM
# T3 sequence (P21397 whole entry): T1 sequence (P21397 whole entry)
SMILES,IC50 [2] [µM],Ratio IC50 [3],inhibition [5] [%],Activity [6] [%],inhibition [7] [%],Activity [8] [%],inhibition ([5]; tested as the 2H-labelled form) [%],Activity ([6]; tested as the 2H-labelled form) [%],IC50 [1] [µM],Ratio [4] [equiv],inhibition at 10 µM (MAO-A) [%]
CCCCC1OC(=O)c2cc(N3N=C(c4ccc(Br)cc4O)CC3=O)ccc21 (configuration not stated),12.3,> 0.8,65.6,54.1,69.4,66,–,–,> 10,1.22,14.8
CCCCC1OC(=O)c2cc(N3N=C(c4cc(Cl)ccc4O)CC3=O)ccc21 (configuration not stated),7.62,> 1.3,85.1,49.9,58.8,74.6,–,–,> 10,1.32,14.1
COc1cc(/C=C/C(=O)CC(=O)/C=C/c2ccc(O)c(OC)c2)ccc1O,–,–,–,35.8,–,–,–,–,–,–,–
CCCCC1OC(=O)c2cc(N3N=C(c4cc(Cl)cc(Br)c4O)CC3=O)ccc21 (configuration not stated),6.5,> 1.5,65.2,87.1,85.1,86.8,–,–,> 10,1.1,8.09
CCCCC1OC(=O)c2cc(N3N=C(c4ccccc4O)CC3=O)ccc21 (configuration not stated),> 10,–,70.9,65,75.3,76.4,–,–,> 10,1.55,25.6
CCCCC1OC(=O)c2cc(N3N=C(c4ccc(Cl)cc4O)CC3=O)ccc21 (configuration not stated),8.05,> 1.2,68,56.5,66.2,65.6,–,–,> 10,1.29,5.51
CCCCCCC1OC(=O)c2cc(N3N=C(c4cc(F)ccc4O)CC3=O)ccc21 (configuration not stated),6.34,> 1.6,44.6,43.7,31.8,55,–,–,> 10,1.1,10.7
CCCCCCCC1OC(=O)c2cc(N3N=C(c4ccccc4O)CC3=O)ccc21 (configuration not stated),11.4,> 0.9,57.8,68.6,44.1,71.7,–,–,> 10,1.38,14.5
CCCCC1OC(=O)c2cc(N3N=C(c4cc(C)ccc4O)CC3=O)ccc21 (configuration not stated),7.35,> 1.4,54.4,24.7,61.2,–,–,–,> 10,1.6,5.2
CCCCC1OC(=O)c2cc(N3N=C(c4cc(N(C)C)ccc4O)CC3=O)ccc21 (configuration not stated),6.2,> 1.6,60.6,51,63.8,55.7,–,–,> 10,2.58,1.6
CCCCCCC1OC(=O)c2cc(N3N=C(c4cc(Cl)ccc4O)CC3=O)ccc21 (configuration not stated),8.32,> 1.2,54.6,76.3,52.7,73.8,–,–,> 10,1.18,27.8
CCCCC1OC(=O)c2cc(N3N=C(c4cc(Br)ccc4O)CC3=O)ccc21 (configuration not stated),9.25,> 1.08,69.3,44.8,64.1,55,–,–,> 10,1.38,10.9
C[C@H](NCc1ccc(OCc2cccc(F)c2)cc1)C(N)=O [SAFINAMIDE],–,–,–,–,–,–,–,–,–,–,9.67
CC1=NN(c2ccc3c(c2)C(=O)OC3)C(=O)C1,–,1.6,–,–,–,–,71.5,28.6,–,1.18,–
CCCCC1OC(=O)c2cc(N3N=C(c4cccc(Br)c4O)CC3=O)ccc21 (configuration not stated),10.5,> 1,75.5,67.4,50.6,62.8,–,–,> 10,1.15,13
CCCCC1OC(=O)c2cc(N3N=C(c4cccc(F)c4O)CC3=O)ccc21 (configuration not stated),> 10,–,67,42.6,75.9,54.6,–,–,> 10,1.07,7.96
CCCCC1OC(=O)c2cc(N3N=C(c4cc([N+](=O)[O-])ccc4O)CC3=O)ccc21 (configuration not stated),9.26,> 1.1,68.8,57.2,66.1,61.8,–,–,> 10,0.73,8.48
CCCCC1OC(=O)c2cc(-n3nc(-c4ccccc4O)cc3C)ccc21 (configuration not stated),> 10,–,19.3,8.11,–,–,–,–,> 10,1.38,20.4

# Further lines, with some results ahead:
IC50 [2] [µM],Ratio IC50 [3],inhibition [5] [%],Activity [6] [%],inhibition [7] [%],Activity [8] [%],inhibition ([5]; tested as the 2H-labelled form) [%],Activity ([6]; tested as the 2H-labelled form) [%],SMILES,IC50 [1] [µM],Ratio [4] [equiv],inhibition at 10 µM (MAO-A) [%]
5.07,> 2,24.9,7.68,–,–,–,–,CCCCC1OC(=O)c2cc(N3N=C(c4ccc(N(C)C)cc4O)CC3=O)ccc21 (configuration not stated),> 10,1.84,9.51
5.53,> 1.8,55.1,78.3,70.3,77.7,–,–,CCCCC1OC(=O)c2cc(N3N=C(c4cc(Cl)cc(Cl)c4O)CC3=O)ccc21 (configuration not stated),> 10,0.97,1.11
0.22,> 45.5,33.5,28.1,–,–,–,–,O=C1OCc2ccc(N3N=C(c4ccccc4O)CC3=O)cc21,> 10,1.38,23.2
3.79,> 2.6,50.3,59.5,43.8,66.7,–,–,CCCCCCC1OC(=O)c2cc(N3N=C(c4ccccc4O)CC3=O)ccc21 (configuration not stated),> 10,1.33,21.7
2.87,> 3.5,45.4,31.1,63.1,60.7,–,–,CCCCCCCC1OC(=O)c2cc(N3N=C(c4cc(OC)ccc4O)CC3=O)ccc21 (configuration not stated),> 10,1.82,8.73
3.88,> 2.6,78,59.9,71,69.1,–,–,CCCCC1OC(=O)c2cc(N3N=C(c4cc(OC)ccc4O)CC3=O)ccc21 (configuration not stated),> 10,2.28,2.97
0.9,> 11.1,21.3,8.27,–,–,–,–,O=C1OCc2ccc(N3N=C(c4cccc(F)c4O)CC3=O)cc21,> 10,1.1,21
3.45,> 2.9,66.6,52.7,60.3,59.5,–,–,CCCCC1OC(=O)c2cc(N3N=C(c4cc(F)ccc4O)CC3=O)ccc21 (configuration not stated),> 10,1.21,13.3
4.36,–,–,–,–,–,–,–,[2H]C1OC(=O)c2cc(N3N=C(C)CC3=O)ccc21 (configuration not stated),6.78,–,–
0.56,> 17.9,46.1,41.1,44.7,42.8,–,–,O=C1OCc2ccc(N3N=C(c4cc(F)ccc4O)CC3=O)cc21,> 10,1.25,24.2
